Measured values published in patent publication US7879836B2, “Pharmaceutical composition comprising a 1-(3-chlorophenyl)-3-alkylpiperazine for treating appetite disorder” (Aziende Chimiche Riunite Angelini Francesco A.C.R.A.F. …, priority 2005, dated 2011).

Tests used:
food-deprived rats = test: Hypophagia-inducing activity in food-deprived rats; type: in vivo, rat; settings: 10 mg/kg orally; rats deprived of food for 24 h; one hour after treatment; FIGS. 2A, 2B
Excerpt: Verification of the consumption of food in food-deprived rats represents a condition that reproduces the complex system regulating the sensation of hunger and the intake of food in humans. Fasting in fact introduces many physiological changes that can lead to activation of the circuits that are specifically dedicated to the control of food intake. As is well known, the use of this model constitutes a valid tool for identifying substances capable of interfering with appetite disorders and can be used in particular for monitoring conditions such as hyperphagia, bulimia and obesity.
Male CD rats weighing 300-350 g were used.
The animals were kept in a room with a controlled cycle of light and darkness (6:00-18:00). Before the test, which was carried out at 9:30 corresponding to daytime, the animals were deprived of food for 24 h. At the end of the fasting period, the animals were treated orally with the test compounds (10 mg/kg) in an aqueous vehicle and, immediately after treatment, a pre-weighed amount of food was made available. One hour after treatment, the food consumption was evaluated by weighing the amount of food remaining. The control animals were treated orally with the vehicle (water) used for administering the test compounds.

rat = settings: Eur J Pharmacol, 1989, 164: 445-54; cited from earlier work
Male CD rats = test: Anxiogenic activity in the rat (test of social interaction); type: in vivo; settings: intraperitoneal; evaluated after 20 minutes during a 10-minute period; FIG. 1
Excerpt: The anxiogenic activity of the compounds of the present invention was investigated by means of the social interaction test in the rat, which, as is known by a person skilled in the art, represents an experimental model that is predictive of the effects in humans.
Measurement of the time spent by pairs of animals in interacting with one another and exploring their surroundings (usually an arena consisting of a Perspex container) constitutes a model for verifying the action of substances that influence social behaviour.
Male CD rats weighing 150-250 g were used.
The animals were kept in a room with a controlled cycle of light and darkness (6:00-18:00). To promote acclimatization and eliminate responses induced by stress conditions, the rats were handled and were injected daily with the vehicle (water) for the four days preceding administration of the test compounds.
On the fifth day the animals were treated intraperitoneally with the test compounds and, after 20 minutes, the interaction time (seconds) spent by the animals during a 10-minute period was evaluated.

SMILES | amount of food consumed, lower than that consumed by the control animals (food-deprived rats) | anxiogenic effects (social interaction time) (rat) | interaction time relative to that of the control animals (Male CD rats)
CC1CN(c2cccc(Cl)c2)CCN1 (racemic) [Compound 1] | approx. 28% |  | 
C[C@H]1CN(c2cccc(Cl)c2)CCN1 [Compound 2] | 75-80% |  | 
C[C@@H]1CN(c2cccc(Cl)c2)CCN1 [Compound 3] | ~20% |  | 
FC(F)(F)c1cccc(N2CCNCC2)c1 [TFMPP, m-trifluoromethyl phenylpiperazine] |  | reduce social interaction time | 
Clc1cccc(N2CCNCC2)c1 [mCPP, m-chlorophenyl-piperazine] |  | reduce social interaction time | approx. 50%
